Patent US12108719B2, “Methods for creating doubled haploid plants” (Monsanto Technology LLC, priority 2015, dated 2024)

How the values were obtained:
[1] = system: Diploid maize plants of a common inbred line; assay: Tiller induction in diploids (Example 6); assay type: in vivo
Description: Diploid maize plants of a common inbred line were subjected to a tiller induction treatment comprising drenching the soil surrounding the roots with 100 mL of a 2.5% PBZ solution (v/v; 0.4% of active ingredient) approximately one week after germination and then allowed to grow to sexual maturity in 10-inch pots a greenhouse. A control group of plants were grown under identical circumstances except that they were not subjected to the tiller induction treatment.
Three treatment groups were then formed from the tillers: tillers of the “Co-hab” treatment were allowed to continue growing in the same pot with the mother plant; those of the “-Mother” treatment also remained in the same pot, but the mother plant was removed from the pot; and those of the “Transplanted” treatment group were transplanted from the pot containing the mother plant into separate 10-inch pots, one plant per pot. Any naturally-occurring tillers produced by the control group were allowed to grow in the same pot as the mother plant, similar to the co-hab treatment. All plants were allowed to grow to sexual maturity and self-pollinated when silks and tassels formed. When seed set was complete, the average total number of seeds produced by all plants deriving from the same mother plant seed were counted and plotted in FIG. 3.

[2] = system: DH0 seedlings of Germplasm A; assay: Doubling efficiency of DH0 plants after co-dominant ear induction treatment (Example 2); assay type: in vivo, maize
Description: An F1 hybrid-derived haploid induction population derived from female inbred maize plant Germplasm A was germinated in soil and tended in standard greenhouse maize growing conditions for approximately seven days. Seedlings were then subjected to a bulk colchicine-based chromosome doubling treatment as described above. Following treatment, seedlings were transplanted into pots and tended in a greenhouse at standard greenhouse maize growing conditions to recover.
Twenty-nine days after the colchicine doubling treatment, 77 of the DH0 seedlings were subjected to a co-dominant ear induction treatment comprising the addition of 60 mL of 2.5% PBZ (v/v) in water, which was poured into the soil surrounding the roots of each plant. The seedlings were then tended in standard greenhouse maize growing conditions until they flowered, at which time each plant that produced pollen was self-pollinated. After approximately 3-4 weeks, ears were harvested and the kernels (DH1 seeds) that formed on the treated DH0 plants were counted to determine doubling efficiencies.
Doubling efficiencies (DE) were calculated under four different constraints, depending on the minimum number of kernels an ear had to produce in order to even be included in the calculation. DE04 represents the portion of all the doubled DH0 plants that produced a total of at least four seeds when all ears were considered. DE20 represents the portion of all the doubled DH0 plants that produced a total of at least 20 kernels when all ears were considered. Similarly, DE30 represents the portion of doubled DH0 plants that produced a total of at least 30 kernels when all ears were considered, and DE50 represents the portion of doubled DH0 plants that produced a total of at least 50 kernels when all ears were considered.
Furthermore, the above doubling efficiencies were calculated once by considering only the kernels that formed on the primary ear of each plant (Ear1), once by considering only the kernels that formed on the primary and secondary ear of each plant (Ear2), once by considering only the kernels that formed on the primary, secondary, and tertiary ear of each plant (Ear3), and finally by considering all the kernels that formed on all the ears of each plant (Earall).

[3] = system: induced haploid germplasms (A and B); assay: Co-dominant ear induction by PBZ soil drench in colchicine-treated haploid maize (Example 1); assay type: in vivo
Description: V1-V3 seedlings of two unique F1 hybrid-derived haploid maize lines, derived from: female heterotic group (Germplasm A) or male heterotic group (Germplasm B), were subjected to a bulk colchicine-based chromosome doubling treatment by removing the seedlings from soil or growth media at the V1-V3 growth stage and aligning their stems and wrapping them together along with several wooden rods into bundle a held together by a strip of aluminum foil (approximate foil strip dimensions were 6 in×18 in). The bundled plants were submerged in plant treatment solution comprising 1250 ppm of colchicine in a centrifuge container and then the entire sample was centrifuged at 50 g for 3 min while the shoot apical meristems (SAMs) remained submerged in the plant treatment agent solution.
Following the first centrifugation, the plant treatment solution was decanted and the seedlings subjected to an addition centrifugation at 335 g for 3 min. During the second centrifugation, the rod-wrap bundle supported the seedlings and prevented the SAMs from contacting the reserve treatment agent that was not absorbed by the plant during application of the centrifugal force.
Following the second centrifugation, the plants were removed from the centrifugation container and the rod-wrap bundle and rinsed with water to remove any remaining colchicine solution, and then recovered and tended in a light, humidity, and temperature-controlled greenhouse for several days before being transplanted to a nursery greenhouse. These centrifuge-based treatment methods are described in more detail in International application number PCT/US2015/028955, which is incorporated by reference herein in its entirety, however, standard doubling treatments can also be applied to any of the haploid doubling steps referred to herein.
Following colchicine doubling treatment, 15-20 plants from each germplasm were planted in pots at two different densities; either as single plants per pot (singles), or as two plants per pot (pairs).
Next, each plant received one of two different doses of PBZ, either 50 mL (low dose) or 60 mL (high dose) of a 2.5% PBZ solution (v/v; 0.4% of active ingredient) in water. These two different doses were applied by soil drench at either the V7 or V8 growth stage, which occurred a total of 23 or 26 days after the seedlings had been subjected to chromosome doubling treatment, respectively. A control group of plants received no treatment solution but were otherwise treated exactly as the experimental groups planted as singles. When pollen shed began at the tassels, the average number of silk-producing ears (i.e. co-dominant ears) were counted for each dosage, germplasm, and treatment time and the results summarized in Table. 1.

[4] = system: maize inbred lines Germplasm A and LH244; assay: Co-dominant ear induction in diploid inbred lines (Example 5); assay type: in vivo
Description: Seeds of maize inbred lines Germplasm A and LH244 were planted in soil, germinated, and then transplanted to 10-inch pots after approximately one week, one seedling per pot. The plants were subjected to a co-dominant ear induction treatment at the V8 stage comprising drenching the soil surrounding the roots of each plant with 50 mL of a 2.5% PBZ solution (v/v; 0.4% of active ingredient). The plants were tended in a greenhouse until sexual maturity, then they were self-pollinated. When seed set had completed, the number of co-dominant ears, and the total number of kernels, produced by each plant were counted. Control plants for each germplasm were processed in the same way as the treated groups, except that the control plants were not subjected to the co-dominant ear induction treatment.

[5] = 100 mL 2.5% PBZ soil drench approx. one week after germination
[6] = Ear1 (primary ear only), 60 mL 2.5% PBZ 29 days after colchicine doubling
[7] = Ear2 (primary and secondary ear), 60 mL 2.5% PBZ after colchicine doubling
[8] = Ear3 (primary, secondary and tertiary ear), 60 mL 2.5% PBZ after colchicine doubling
[9] = EarAll (all ears), 60 mL 2.5% PBZ after colchicine doubling

Q: `CC(C)(C)[C@H](O)[C@H](Cc1ccc(Cl)cc1)n1cncn1` (relative stereo) [PBZ, (2S,3S)-1-(4-chlorophenyl)-4,4-dimethyl-2-(1,2,4-triazol-1-yl) pentan-3-ol] was tested. Which “morphology of mother plants” value [1, 5] did it give?
A: shortened internodes

Q: And the “tiller production by mother plants” value [1, 5]?
A: induced the mother plants to produce tillers

Q: And the “average total seeds per plant vs control group” value ([1]; Transplanted treatment group (tillers transplanted to separate pots))?
A: more than twice the number of seeds as the control group

Q: What about the DE04 [2, 6] of the same compound?
A: 71%

Q: And the DE20 [2, 6]?
A: 37%

Q: And the DE30 [2, 6]?
A: 26%

Q: And the DE50 [2, 6]?
A: 23%

Q: And the DE04 [2, 7]?
A: 76%

Q: What about the DE20 [2, 7] of the same compound?
A: 59%

Q: And the DE30 [2, 7]?
A: 47%

Q: And the DE50 [2, 7]?
A: 36%

Q: And the DE04 [2, 8]?
A: 76%

Q: And the DE20 [2, 8]?
A: 65%

Q: And the DE30 [2, 8]?
A: 58%

Q: What about the DE50 [2, 8] of the same compound?
A: 50%

Q: And the DE04 [2, 9]?
A: 76%

Q: And the DE20 [2, 9]?
A: 68%

Q: And the DE30 [2, 9]?
A: 58%

Q: What about the DE50 [2, 9] of the same compound?
A: 52%

Q: What about the “number of co-dominant ears formed per plant” value ([3]; V7, Germplasm A, planted as pairs, low dose (50 mL 2.5% PBZ)) of the same compound?
A: 3

Q: What about the “average EP of high dosage greater than EP of low dosage” value ([3]; all plants, high vs low dosage) of the same compound?
A: 0.31

Q: And the “high-dose EP average higher than the low-dose” value ([3]; only the singles)?
A: 0.55

Q: And the “minimum increase of EP over control plants” value ([3]; singles subjected to the low dose)?
A: ≥ 1.2 EP

Q: What about the “Ave. Ears Per Plant” value ([4]; Treated, Germplasm A diploid, 50 mL 2.5% PBZ soil drench at V8) of the same compound?
A: 8

Q: And the “response of average total kernels per plant and average ears per plant vs control” value ([4]; both germplasms (Germplasm A, LH244))?
A: more than doubling
